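All cell lines were grown in 96-well plates and treated with compound for 48 hours. GI50 marks 50% less growth.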 The source made the active and inactive calls. No stated cut-off is given here; in the data, active = GI50 up to about 1.1 µM and inactive = higher.
Experiments:
Assay in all cases: DTP human tumour cell line panel, 48 h
K562 = test system: K562
IGROV-1 = test system: IGROV-1
LOX IMVI = test system: LOX IMVI
NCI-H522 = test system: NCI-H522
SK-MEL-2 = test system: SK-MEL-2
NCI-H226 = test system: NCI-H226
HOP-92 = test system: HOP-92
HL-60 = test system: HL-60
SW-620 = test system: SW-620
OVCAR-5 = test system: OVCAR-5
SK-MEL-5 = test system: SK-MEL-5
RXF 393 = test system: RXF 393
SN12C = test system: SN12C
COLO 205 = test system: COLO 205
HCC 2998 = test system: HCC 2998
U-251 = test system: U-251
UACC-62 = test system: UACC-62
CAKI-1 = test system: CAKI-1
HOP-62 = test system: HOP-62
SK-MEL-28 = test system: SK-MEL-28

With C=C1C(=O)O[C@@H]2[C@H](O)[C@@H](C)[C@@H]3C=CC(=O)[C@@]3(C)[C@@H](OC(=O)/C(C)=C/C)[C@H]12 the GI50 (K562) was 0.483 µM (active), the GI50 (IGROV-1) was 0.459 µM (active) and the GI50 (LOX IMVI) was 0.869 µM (active). The GI50 (NCI-H522) was 0.0889 µM (active), the GI50 (SK-MEL-2) was 0.557 µM (active) and the GI50 (NCI-H226) was 1.12 µM (inactive). For the same compound, the GI50 (HOP-92) was 0.548 µM (active), the GI50 (HL-60) was 0.355 µM (active) and the GI50 (SW-620) was 0.483 µM (active). The GI50 (OVCAR-5) was 3.81 µM (inactive), the GI50 (SK-MEL-5) was 1.18 µM (inactive) and the GI50 (RXF 393) was 0.63 µM (active). The GI50 (SN12C) was 0.465 µM (active), the GI50 (COLO 205) was 0.344 µM (active) and the GI50 (HCC 2998) was 0.656 µM (active). For the same compound, the GI50 (U-251) was 0.733 µM (active), the GI50 (UACC-62) was 0.342 µM (active) and the GI50 (CAKI-1) was 0.782 µM (active). For the same compound, the GI50 (HOP-62) was 7.46 µM (inactive) and the GI50 (SK-MEL-28) was 0.344 µM (active).
O=C1CCCN1CCC/N=c1/cc2n(-c3ccc(Cl)cc3)c3ccccc3nc-2cc1Nc1ccc(Cl)cc1 was tested, and the GI50 (K562) was 9.23 µM (inactive), the GI50 (IGROV-1) was 2.75 µM (inactive) and the GI50 (LOX IMVI) was 7.71 µM (inactive). For the same compound, the GI50 (NCI-H522) was 9.23 µM (inactive), the GI50 (SK-MEL-2) was 13.1 µM (inactive) and the GI50 (NCI-H226) was 15.7 µM (inactive). For the same compound, the GI50 (HOP-92) was 8.17 µM (inactive), the GI50 (HL-60) was 3.47 µM (inactive) and the GI50 (SW-620) was 14.5 µM (inactive). The GI50 (OVCAR-5) was 17 µM (inactive), the GI50 (SK-MEL-5) was 13 µM (inactive) and the GI50 (RXF 393) was 1.78 µM (inactive). The GI50 (SN12C) was 14.8 µM (inactive), the GI50 (COLO 205) was 1.41 µM (inactive) and the GI50 (HCC 2998) was 5.18 µM (inactive). The GI50 (U-251) was 22.1 µM (inactive), the GI50 (UACC-62) was 11.5 µM (inactive) and the GI50 (CAKI-1) was 27 µM (inactive). The GI50 (HOP-62) was 12.9 µM (inactive) and the GI50 (SK-MEL-28) was 23.8 µM (inactive).
With CC(=O)C(CN1CCCCC1)C(c1ccccc1)c1c(O)c2ccccc2oc1=O (stereo not given) the GI50 (K562) was > 100 µM (inactive), the GI50 (IGROV-1) was > 100 µM (inactive) and the GI50 (LOX IMVI) was > 100 µM (inactive). For the same compound, the GI50 (NCI-H522) was > 100 µM (inactive), the GI50 (SK-MEL-2) was > 100 µM (inactive) and the GI50 (NCI-H226) was > 100 µM (inactive). The GI50 (HOP-92) was 41 µM (inactive), the GI50 (HL-60) was 59.4 µM (inactive) and the GI50 (SW-620) was > 100 µM (inactive). The GI50 (OVCAR-5) was > 100 µM (inactive), the GI50 (SK-MEL-5) was > 100 µM (inactive) and the GI50 (RXF 393) was > 100 µM (inactive). The GI50 (SN12C) was > 100 µM (inactive), the GI50 (COLO 205) was > 100 µM (inactive) and the GI50 (HCC 2998) was > 100 µM (inactive). For the same compound, the GI50 (U-251) was > 100 µM (inactive), the GI50 (UACC-62) was > 100 µM (inactive) and the GI50 (CAKI-1) was > 100 µM (inactive). The GI50 (HOP-62) was > 100 µM (inactive) and the GI50 (SK-MEL-28) was > 100 µM (inactive).
For O=c1c(C(c2ccc(OCc3ccccc3)cc2)c2c(O)oc3ccccc3c2=O)c(O)oc2ccccc12, the GI50 (K562) was 10 µM (inactive), the GI50 (IGROV-1) was 77.4 µM (inactive) and the GI50 (LOX IMVI) was 34.2 µM (inactive). For the same compound, the GI50 (NCI-H522) was 27.2 µM (inactive), the GI50 (SK-MEL-2) was 61.1 µM (inactive) and the GI50 (NCI-H226) was 30.7 µM (inactive). The GI50 (HOP-92) was 36.2 µM (inactive), the GI50 (HL-60) was 32.8 µM (inactive) and the GI50 (SW-620) was 57.4 µM (inactive). For the same compound, the GI50 (OVCAR-5) was 75.2 µM (inactive), the GI50 (SK-MEL-5) was 29.6 µM (inactive) and the GI50 (RXF 393) was > 100 µM (inactive). The GI50 (SN12C) was 30.4 µM (inactive), the GI50 (COLO 205) was 46 µM (inactive) and the GI50 (HCC 2998) was 35.1 µM (inactive). The GI50 (U-251) was 39.5 µM (inactive), the GI50 (UACC-62) was 37.5 µM (inactive) and the GI50 (CAKI-1) was 27.2 µM (inactive). For the same compound, the GI50 (HOP-62) was 47.5 µM (inactive) and the GI50 (SK-MEL-28) was 78 µM (inactive).
